Results taken from patent US8299111B2, “Compounds which modulate the CB2 receptor” (Boehringer Ingelheim International GmbH, priority 2006, dated 2012).

Molecular target: T1, human CB2R (Homo sapiens, UniProt P34972)
T1 construct: host or cells: CHO cells
Assay: CB2R mediated modulation of cAMP synthesis
Type: cell-based
Conditions: found through the use of the above described assays (binding and cAMP); CHO cells expressing human CB2R, forskolin-stimulated cAMP
Method in brief: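 EC50 values reflect inhibition of cAMP made in response to 10 uM forskolin (with 1 mM IBMX, 0.25% BSA) over 30 min at 37 °C in human CB2R-expressing CHO cells. The window runs from forskolin alone to 1 uM CP55940; curves fitted with a four-parameter logistic model.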

T1 sequence (P34972 whole entry): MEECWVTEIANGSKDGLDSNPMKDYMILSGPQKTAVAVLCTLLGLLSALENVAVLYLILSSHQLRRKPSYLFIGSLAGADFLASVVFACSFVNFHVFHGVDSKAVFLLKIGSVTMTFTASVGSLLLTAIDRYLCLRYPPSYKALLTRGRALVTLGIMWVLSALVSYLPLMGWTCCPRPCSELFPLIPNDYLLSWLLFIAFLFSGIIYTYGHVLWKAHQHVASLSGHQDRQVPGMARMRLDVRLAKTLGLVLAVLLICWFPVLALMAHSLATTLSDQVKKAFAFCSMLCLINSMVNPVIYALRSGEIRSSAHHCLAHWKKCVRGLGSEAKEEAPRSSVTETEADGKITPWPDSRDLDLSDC

Row | Structure (SMILES) | agonistic activity
1 | CC(C)(C)c1cnc(NC(=O)C2(S(=O)(=O)c3ccc(C(F)(F)F)cc3)CCC2)s1 [1-(4-Trifluoromethyl-benzenesulfonyl)-cyclobutanecarboxylic acid (5-tert-butyl-thiazol-2-yl)-amide] | agonistic activity
2 | CC(C)(C(=O)Nc1cnc2ccccc2c1)S(=O)(=O)c1ccc(Cl)cc1F [2-[(4-chloro-2-fluorophenyl)sulfonyl]-2-methyl-N-quinolin-3-ylpropanamide] | agonistic activity
3 | CC(C)(C(=O)Nc1nsc(-c2ccccc2)n1)S(=O)(=O)c1ccc(Cl)cc1F [2-[(4-chloro-2-fluorophenyl)sulfonyl]-2-methyl-N-(5-phenyl-1,2,4-thiadiazol-3-yl)propanamide] | agonistic activity
4 | CC(C)(C)c1cc(NC(=O)C(C)(C)S(=O)(=O)c2ccc(C#N)cc2F)no1 [N-(5-tert-Butyl-isoxazol-3-yl)-2-(4-cyano-2-fluoro-benzenesulfonyl)-2-methyl-propionamide] | agonistic activity
5 | CC(C)(C(=O)Nc1cc2ccccc2cn1)S(=O)(=O)c1ccc(F)cc1F [2-(2,4-Difluoro-benzenesulfonyl)-N-isoquinolin-3-yl-2-methyl-propionamide] | agonistic activity
6 | COc1ccc(S(=O)(=O)C(C)(C)C(=O)Nc2cc(C(C)(C)C)on2)cc1F [N-(5-tert-Butyl-isoxazol-3-yl)-2-(3-fluoro-4-methoxy-benzenesulfonyl)-2-methyl-propionamide] | agonistic activity
7 | CC(C)(C(=O)Nc1nc(-c2ccc(Cl)cc2)cs1)S(=O)(=O)c1ccc(Cl)cc1F [2-[(4-chloro-2-fluorophenyl)sulfonyl]-N-[4-(4-chlorophenyl)-1,3-thiazol-2-yl]-2-methylpropanamide] | agonistic activity
8 | CC(C)(C(=O)Nc1nc(-c2ccccn2)cs1)S(=O)(=O)c1ccc(F)cc1F [2-(2,4-Difluoro-benzenesulfonyl)-2-methyl-N-(4-pyridin-2-yl-thiazol-2-yl)-propionamide] | agonistic activity
9 | CC(C)(C(=O)Nc1cccc(C(F)(F)F)c1)S(=O)(=O)c1ccc(Cl)cc1F [2-[(4-chloro-2-fluorophenyl)sulfonyl]-2-methyl-N-[3-(trifluoromethyl)phenyl]propanamide] | agonistic activity
10 | CCc1ccnc(NC(=O)C(C)(C)S(=O)(=O)c2ccc(Cl)cc2F)c1 [2-[(4-chloro-2-fluorophenyl)sulfonyl]-N-(4-ethylpyridin-2-yl)-2-methylpropanamide] | agonistic activity
11 | CC(C)(C)c1csc(NC(=O)C(C)(C)S(=O)(=O)c2ccc(C(F)(F)F)nc2)n1 [N-(4-tert-Butyl-thiazol-2-yl)-2-methyl-2-(6-trifluoromethyl-pyridine-3-sulfonyl)-propionamide] | agonistic activity
12 | CC(C)(C(=O)Nc1ccc(C(F)(F)F)cc1)S(=O)(=O)c1ccc(Cl)cc1F [2-[(4-chloro-2-fluorophenyl)sulfonyl]-2-methyl-N-[4-(trifluoromethyl)phenyl]propanamide] | agonistic activity
13 | Cc1c(-c2ccccc2)nn(C)c1NC(=O)C(C)(C)S(=O)(=O)c1ccc(C(F)(F)F)nc1 [N-(1,4-dimethyl-3-phenyl-1H-pyrazol-5-yl)-2-methyl-2-{[6-(trifluoromethyl)pyridin-3-yl]sulfonyl}propanamide] | agonistic activity
14 | Cc1csc(NC(=O)C(C)(C)S(=O)(=O)c2ccc(Cl)cc2)n1 [2-(4-Chloro-benzenesulfonyl)-2-methyl-N-(4-methyl-thiazol-2-yl)-propionamide] | agonistic activity
15 | CC(C)(C(=O)Nc1cccnc1)S(=O)(=O)c1ccc(C(F)(F)F)cc1 [2-Methyl-N-pyridin-3-yl-2-(4-trifluoromethyl-benzenesulfonyl)-propionamide] | agonistic activity
16 | COc1ccc(S(=O)(=O)C(C)(C)C(=O)Nc2ccc(C(F)(F)F)cn2)cc1F [2-(3-Fluoro-4-methoxy-benzenesulfonyl)-2-methyl-N-(5-trifluoromethyl-pyridin-2-yl)-propionamide] | agonistic activity
17 | Cc1sc(NC(=O)C(C)(C)S(=O)(=O)c2ccc(S(C)(=O)=O)cc2)nc1-c1ccccc1 [2-methyl-N-(5-methyl-4-phenyl-1,3-thiazol-2-yl)-2-{[4-(methylsulfonyl)phenyl]sulfonyl}propanamide] | agonistic activity
18 | CC(C)(C)c1cccc(NC(=O)C(C)(C)S(=O)(=O)c2ccc(C(F)(F)F)nc2)c1 [N-(3-tert-butylphenyl)-2-methyl-2-{[6-(trifluoromethyl)pyridin-3-yl]sulfonyl}propanamide] | agonistic activity
19 | CC(C)(C)c1cc(NC(=O)C(C)(C)S(=O)(=O)c2ccc(F)cc2F)on1 [N-(3-tert-Butyl-isoxazol-5-yl)-2-(2,4-difluoro-benzenesulfonyl)-2-methyl-propionamide] | agonistic activity

Row | Structure (SMILES) | agonistic activity
20 | Cc1ccc(S(=O)(=O)C(C)(C)C(=O)Nc2cc(C(C)(C)C)on2)c(F)c1 [N-(5-tert-Butyl-isoxazol-3-yl)-2-(2-fluoro-4-methyl-benzenesulfonyl)-2-methyl-propionamide] | agonistic activity
21 | Cc1ccc(S(=O)(=O)C(C)(C)C(=O)Nc2ccc(C(F)(F)F)cn2)cc1 [2-Methyl-2-(toluene-4-sulfonyl)-N-(5-trifluoromethyl-pyridin-2-yl)-propionamide] | agonistic activity
22 | CC(C)(C(=O)Nc1nc(-c2cccs2)cs1)S(=O)(=O)c1ccc(Cl)cc1 [2-(4-Chloro-benzenesulfonyl)-2-methyl-N-(4-thiophen-2-yl-thiazol-2-yl)-propionamide] | agonistic activity
23 | Cc1noc(NC(=O)C(C)(C)S(=O)(=O)c2ccc(Cl)cc2)c1-c1ccccc1 [2-(4-Chloro-benzenesulfonyl)-2-methyl-N-(3-methyl-4-phenyl-isoxazol-5-yl)-propionamide] | agonistic activity
24 | CC(C)(C(=O)Nc1noc2ccccc12)S(=O)(=O)c1ccc(Cl)cc1 [N-Benzo[d]isoxazol-3-yl-2-(4-chloro-benzenesulfonyl)-2-methyl-propionamide] | agonistic activity
25 | CC(C)(C(=O)Nc1nc(-c2ccccn2)cs1)S(=O)(=O)c1ccc(Cl)cc1 [2-(4-Chloro-benzenesulfonyl)-2-methyl-N-(4-pyridin-2-yl-thiazol-2-yl)-propionamide] | agonistic activity
26 | Cc1ccc(S(=O)(=O)C(C)(C)C(=O)Nc2cc(C(C)(C)C)nn2C)c(F)c1 [N-(5-tert-Butyl-2-methyl-2H-pyrazol-3-yl)-2-(2-fluoro-4-methyl-benzenesulfonyl)-2-methyl-propionamide] | agonistic activity
27 | CC(C)(C)c1cc(NC(=O)C(C)(C)S(=O)(=O)c2ccc(F)c(Cl)c2)no1 [N-(5-tert-Butyl-isoxazol-3-yl)-2-(3-chloro-4-fluoro-benzenesulfonyl)-2-methyl-propionamide] | agonistic activity
28 | CC(C)(C(=O)Nc1cnc2ccccc2c1)S(=O)(=O)c1ccc(F)cc1F [2-(2,4-Difluoro-benzenesulfonyl)-2-methyl-N-quinolin-3-yl-propionamide] | agonistic activity
29 | CC(C)(C(=O)Nc1ncc(-c2ccc(F)cc2)s1)S(=O)(=O)c1ccc(F)cc1 [2-(4-Fluoro-benzenesulfonyl)-N-[5-(4-fluoro-phenyl)-thiazol-2-yl]-2-methyl-propionamide] | agonistic activity
30 | Cn1nc(C(C)(C)C)cc1NC(=O)C(C)(C)S(=O)(=O)c1ccccc1 [2-Benzenesulfonyl-N-(5-tert-butyl-2-methyl-2H-pyrazol-3-yl)-2-methyl-propionamide] | agonistic activity
31 | CC(C)(C(=O)Nc1cnc2ccccc2c1)S(=O)(=O)c1ccc(C(F)(F)F)nc1 [2-methyl-N-quinolin-3-yl-2-{[6-(trifluoromethyl)pyridin-3-yl]sulfonyl}propanamide] | agonistic activity
32 | CC(C)(C(=O)Nc1ccc(C(F)(F)F)c(F)c1)S(=O)(=O)c1ccc(Cl)cc1 [2-[(4-chlorophenyl)sulfonyl]-N-[3-fluoro-4-(trifluoromethyl)phenyl]-2-methylpropanamide] | agonistic activity
33 | Cc1noc(NC(=O)C(C)(C)S(=O)(=O)c2ccc(Cl)cc2)c1C [2-(4-Chloro-benzenesulfonyl)-N-(3,4-dimethyl-isoxazol-5-yl)-2-methyl-propionamide] | agonistic activity
34 | Cc1nc(NC(=O)C(C)(C)S(=O)(=O)c2ccccc2F)sc1C(C)(C)C [N-(5-tert-Butyl-4-methyl-thiazol-2-yl)-2-(2-fluoro-benzenesulfonyl)-2-methyl-propionamide] | agonistic activity
35 | CC(C(=O)Nc1cc(C(C)(C)C)on1)S(=O)(=O)c1ccc(C(F)(F)F)cc1 (centres unmarked) [N-(5-tert-Butyl-isoxazol-3-yl)-2-(4-trifluoromethyl-benzenesulfonyl)-propionamide] | agonistic activity
36 | CC(C)(C(=O)Nc1nc2ccccc2o1)S(=O)(=O)c1ccc(Cl)cc1F [N-1,3-benzoxazol-2-yl-2-[(4-chloro-2-fluorophenyl)sulfonyl]-2-methylpropanamide] | agonistic activity
37 | CC(C)(C)c1csc(NC(=O)C(C)(C)S(=O)(=O)c2cccc(C(F)(F)F)c2)n1 [N-(4-tert-Butyl-thiazol-2-yl)-2-methyl-2-(3-trifluoromethyl-benzenesulfonyl)-propionamide] | agonistic activity
38 | Cc1nc(NC(=O)C(C)(C)S(=O)(=O)c2ccc3ccccc3c2)sc1C(C)(C)C [N-(5-tert-Butyl-4-methyl-thiazol-2-yl)-2-methyl-2-(naphthalene-2-sulfonyl)-propionamide] | agonistic activity
